Measured values: patent US7727736B2, “Soluble phospholipids for use in clotting factor assays” (The University of North Carolina at Chapel Hill, priority 2003, dated 2010)

How the values were obtained:
FXa [1] = target: T1, FXa (Homo sapiens, UniProt P00742); conditions: equilibrium dialysis; cited from earlier work
factor IXa = target: T2, factor IXa (Homo sapiens, UniProt P00740); assay: Activation of factor X by factor IXa (proteolytic activity); format: biochemical
T2 construct: intrinsic tryptophan fluorescence of factor IXa
T2 sequence (P00740 47-191 limits assumed): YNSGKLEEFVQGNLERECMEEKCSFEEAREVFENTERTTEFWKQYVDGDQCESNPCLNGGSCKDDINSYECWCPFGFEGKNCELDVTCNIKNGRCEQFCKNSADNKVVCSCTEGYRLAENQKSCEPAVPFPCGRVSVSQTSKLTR
T2 sequence (P00740 227-461 limits assumed): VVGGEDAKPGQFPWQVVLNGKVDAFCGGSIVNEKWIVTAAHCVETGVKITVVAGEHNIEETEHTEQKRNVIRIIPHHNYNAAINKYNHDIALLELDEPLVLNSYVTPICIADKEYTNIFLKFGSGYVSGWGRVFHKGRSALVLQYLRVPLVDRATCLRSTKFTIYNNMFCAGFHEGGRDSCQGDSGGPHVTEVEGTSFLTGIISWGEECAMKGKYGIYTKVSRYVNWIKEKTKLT
Description: The assay was conducted in the presence of increasing concentrations of C6PS.
C6PS promotes the proteolytic activation of factor X by factor IXa, just as it promotes the proteolytic activation of prothrombin by factor Xa. […] The rate of activation of factor X by factor IXa in the presence of 700 μM C6PS was monitored at different concentrations of factor X (FIG. 11). The KM for this reaction was 300 nM, which is the same as that obtained with 20% PS/PC membranes (Larson et al. (1996) J. Biol. Chem. 271 3869).

FXa [2] = target: T1, FXa; assay: Native gel electrophoresis (Ferguson analysis), C6PS bound to FXa; format: binding; design: Human prothrombin and factor Xa; purchased Hematologic Technologies Inc. (Essex Junction, Vt.); conditions: 400 μM C6PS
Description: Native Gel Electrophoresis. This method has been used to document the association of blood coagulation proteins in solution (Majumder, et al. (2002) supra; Majumder, et al. (2003) supra). A mixture of 1 nM FXa and 1 nM FVa was incubated at 37° C. for 2 minutes in the presence and absence of 400 μM C6PS and the two samples were run together with known marker proteins (270 kiloDalton-14.2 kiloDalton; SIGMA, St. Louis, Mo.) on five gels (5, 6, 6.5, 7, and 8% total acrylamide with bisacrylamide/acrylamide being 1/29 in all cases) in a BIORAD® MINI-PROTEAN® II minigel apparatus (BIORAD® Corp., Hercules, Calif.) and stained with colloidal Coomassie blue (Mitra, et al. (1994) supra). FXa and FVa, at these same concentrations and in the presence of 400 μM C6PS, were run separately as controls. Protein retardation coefficients, which depend to a good approximation only on the hydrodynamic size and shape of the protein, were determined for both the marker and unknown proteins (Ferguson (1964) Metabolism 13:985-1002). A log-log plot of the retardation coefficient against the molecular weights of the marker proteins produced a linear curve from which the molecular weight of the FVa•FXa complex was determined from its measured retardation coefficient (Bryan (1977) Anal. Biochem. 78(2):513-9). […]

factor Va = target: T3, factor Va (Bos taurus, UniProt Q28107); conditions: Zhai et al. (2002); read-out: kd of binding to factor Va; cited from earlier work
T3 sequence (Q28107 29-741 limits assumed): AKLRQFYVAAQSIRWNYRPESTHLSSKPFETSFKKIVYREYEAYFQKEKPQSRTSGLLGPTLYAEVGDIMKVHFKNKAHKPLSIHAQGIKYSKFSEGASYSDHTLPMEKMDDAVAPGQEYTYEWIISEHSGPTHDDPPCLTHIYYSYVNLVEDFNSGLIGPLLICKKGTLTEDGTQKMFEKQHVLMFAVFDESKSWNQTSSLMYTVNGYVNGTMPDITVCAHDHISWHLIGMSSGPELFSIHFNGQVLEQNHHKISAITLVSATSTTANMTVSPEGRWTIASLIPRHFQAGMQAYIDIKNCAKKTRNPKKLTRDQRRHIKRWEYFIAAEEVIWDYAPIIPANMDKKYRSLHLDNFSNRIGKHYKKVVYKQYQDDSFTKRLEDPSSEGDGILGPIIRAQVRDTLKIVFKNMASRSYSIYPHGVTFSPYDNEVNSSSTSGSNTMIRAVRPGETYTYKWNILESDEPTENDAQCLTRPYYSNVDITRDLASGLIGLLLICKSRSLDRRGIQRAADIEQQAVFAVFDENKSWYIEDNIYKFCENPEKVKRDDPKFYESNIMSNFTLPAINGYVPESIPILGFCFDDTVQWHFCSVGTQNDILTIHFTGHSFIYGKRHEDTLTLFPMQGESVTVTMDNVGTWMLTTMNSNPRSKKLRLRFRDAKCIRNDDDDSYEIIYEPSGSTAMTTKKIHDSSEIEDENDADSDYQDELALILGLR
T3 sequence (Q28107 1565-2211 limits assumed): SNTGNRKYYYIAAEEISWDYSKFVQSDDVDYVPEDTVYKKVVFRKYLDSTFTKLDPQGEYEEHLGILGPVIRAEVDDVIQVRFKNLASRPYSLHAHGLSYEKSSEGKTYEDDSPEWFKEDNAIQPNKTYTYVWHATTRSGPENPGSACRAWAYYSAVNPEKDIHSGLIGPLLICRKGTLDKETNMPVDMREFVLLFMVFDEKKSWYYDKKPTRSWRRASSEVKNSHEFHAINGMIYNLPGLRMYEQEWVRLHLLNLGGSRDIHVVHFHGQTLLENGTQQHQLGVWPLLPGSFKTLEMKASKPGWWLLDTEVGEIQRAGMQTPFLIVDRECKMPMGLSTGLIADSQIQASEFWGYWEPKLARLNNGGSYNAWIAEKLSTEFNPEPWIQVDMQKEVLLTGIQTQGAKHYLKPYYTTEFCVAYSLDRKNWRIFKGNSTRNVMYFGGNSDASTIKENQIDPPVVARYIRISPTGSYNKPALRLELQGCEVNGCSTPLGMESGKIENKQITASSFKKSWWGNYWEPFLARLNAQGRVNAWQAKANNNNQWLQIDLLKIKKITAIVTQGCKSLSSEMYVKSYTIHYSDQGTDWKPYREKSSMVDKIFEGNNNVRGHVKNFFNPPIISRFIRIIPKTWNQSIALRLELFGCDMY

T1 sequence (P00742 41-179 limits assumed): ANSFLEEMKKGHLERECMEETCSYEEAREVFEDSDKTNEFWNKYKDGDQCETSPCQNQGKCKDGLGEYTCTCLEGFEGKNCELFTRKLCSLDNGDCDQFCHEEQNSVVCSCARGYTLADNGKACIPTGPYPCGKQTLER
T1 sequence (P00742 235-488 limits assumed): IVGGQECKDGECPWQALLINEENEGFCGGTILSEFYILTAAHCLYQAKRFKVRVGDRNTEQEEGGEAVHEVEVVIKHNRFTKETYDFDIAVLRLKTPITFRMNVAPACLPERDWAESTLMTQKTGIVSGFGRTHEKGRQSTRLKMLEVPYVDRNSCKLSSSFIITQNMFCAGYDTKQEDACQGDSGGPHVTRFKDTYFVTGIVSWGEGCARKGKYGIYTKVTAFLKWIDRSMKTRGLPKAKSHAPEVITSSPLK

CCCCCC(=O)OC[C@H](COP(=O)(O)OC[C@H](N)C(=O)O)OC(=O)CCCCC [C6PS, 1,2-dicaproyl-sn-glycero-3-phospho-L-serine]
stoichiometry of C6PS binding to FXa at saturation (FXa [1]): 2
Kd (factor IXa; 10 nM IXa, 5 mM calcium, read-out: Kd from proteolytic activity of IXa (hyperbolic fit)): 164 µM
rate of activation of factor X by factor IXa compared with 20% PS/PC membranes (factor IXa; 700 μM C6PS): identical
molecules of C6PS bound to FXa from molecular mass (FXa [2]): 1.5 molecules
Kd (factor Va): ~90 µM
